Experiments:
Assay in all cases: KINOMEscan kinase binding assay
[1] = system: DDR2; settings: at 1 μM
How it was run: (§1)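 qPCR read-out of kinase retained on ligand-coated streptavidin beads. Binding buffer: 20% SeaBlock, 0.17×PBS, 0.05% Tween 20, 6 mM DTT; 1 h RT with shaking. % Ctrl = (test − positive control)/(negative control − positive control)×100; lower values mean stronger binding.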

[2] = system: ITK; settings: at 1 μM
How it was run: as §1

[3] = system: ABL1-phosphorylated; settings: at 1 μM
How it was run: as §1

[4] = system: ALK(C1156Y); settings: at 1 μM
How it was run: as §1

[5] = system: FLT3(K663Q); settings: at 1 μM
How it was run: as §1

[6] = system: MET; settings: at 1 μM
How it was run: as §1

[7] = system: BRK; settings: at 1 μM
How it was run: as §1

[8] = system: EPHA2; settings: at 1 μM
How it was run: (§2)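 We measured how much kinase stayed bound to an immobilized small-molecule ligand when test compound was present. Binding ran at room temperature for 1 h, and the kinase eluted from the beads was counted by qPCR. Lower % Ctrl indicated tighter compound binding.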

[9] = system: RET(M918T); settings: at 1 μM
How it was run: as §1

[10] = system: ALK; settings: at 1 μM
How it was run: as §1

[11] = system: KIT(L576P); settings: at 1 μM
How it was run: as §1

[12] = system: EGFR(L858R); settings: at 1 μM
How it was run: as §2

[13] = system: EGFR(L747-E749del, A750P); settings: at 1 μM
How it was run: as §1

[14] = system: LTK; settings: at 1 μM
How it was run: as §1

[15] = system: EGFR(L747-S752del, P753S); settings: at 1 μM
How it was run: as §1

[16] = system: EPHB4; settings: at 1 μM
How it was run: as §1

[17] = system: MUSK; settings: at 1 μM
How it was run: as §1

[18] = system: EPHA4; settings: at 1 μM
How it was run: as §2

[19] = system: EPHB3; settings: at 1 μM
How it was run: as §1

[20] = system: TRKC; settings: at 1 μM
How it was run: as §1

[21] = system: EPHB6; settings: at 1 μM
How it was run: as §1

[22] = system: EPHA6; settings: at 1 μM
How it was run: as §2

[23] = system: FLT3; settings: at 1 μM
How it was run: as §1

[24] = system: JAK2(JH1domain-catalytic)
How it was run: as §2

[25] = system: EGFR(L858R, T790M); settings: at 1 μM
How it was run: as §2

[26] = system: BMX; settings: at 1 μM
How it was run: as §1

[27] = system: JAK1(JH2domain-pseudokinase)
How it was run: as §1

[28] = system: FLT3(D835V); settings: at 1 μM
How it was run: as §1

[29] = system: KIT(V559D, T670I); settings: at 1 μM
How it was run: as §1

[30] = system: HCK; settings: at 1 μM
How it was run: as §1

[31] = system: FER; settings: at 1 μM
How it was run: as §1

[32] = system: TYK2(JH2domain-pseudokinase)
How it was run: as §2

[33] = system: CTK; settings: at 1 μM
How it was run: as §1

[34] = system: ABL1(H396P)-nonphosphorylated; settings: at 1 μM
How it was run: as §1

[35] = system: ALK(L1196M); settings: at 1 μM
How it was run: as §1

[36] = system: MET(M1250T); settings: at 1 μM
How it was run: as §1

[37] = system: KIT; settings: at 1 μM
How it was run: as §1

[38] = system: AXL; settings: at 1 μM
How it was run: as §1

[39] = system: ABL1(F317I)-nonphosphorylated; settings: at 1 μM
How it was run: as §1

For `Cc1cc2c([nH]1)/C=C1\C(=O)Nc3c(Cl)cc(cc31)-c1cn(C)nc1COC[C@@H](C)N(C)C2=O` [Cpd. 5, [3a(4)Z,10R]-20-chloro-6,9,10,15-tetramethyl-10,11,13,15-tetrahydro-2H-1,17-(ethanediylidene)pyrazolo[4,3-m]dipyrrolo[3,2-f:3′,4′-i][1,4]oxazacyclopentadecine-3,8(5H,9H)-dione], the “% Ctrl” value [1] was 76%, the “% Ctrl” value [2] was 96% and the “% Ctrl” value [3] was 79%. For the same compound, the “% Ctrl” value [4] was 90%, the “% Ctrl” value [5] was 87% and the “% Ctrl” value [6] was 96%. The “% Ctrl” value [7] was 79%, the “% Ctrl” value [8] was 100% and the “% Ctrl” value [9] was 87%. The “% Ctrl” value [10] was 71%, the “% Ctrl” value [11] was 97% and the “% Ctrl” value [12] was 90%. The “% Ctrl” value [13] was 74%, the “% Ctrl” value [14] was 93% and the “% Ctrl” value [15] was 86%. For the same compound, the “% Ctrl” value [16] was 91%, the “% Ctrl” value [17] was 100% and the “% Ctrl” value [18] was 93%. For the same compound, the “% Ctrl” value [19] was 89%, the “% Ctrl” value [20] was 98% and the “% Ctrl” value [21] was 92%. The “% Ctrl” value [22] was 91%, the “% Ctrl” value [23] was 94% and the “% Ctrl” value ([24]; JAK2(JH1domain-catalytic), at 1 μM) was 89%. For the same compound, the Kd ([24]; read-out: JAK2(JH1 domain-catalytic) Kd) was greater than 10 µM, the “% Ctrl” value [25] was 64% and the “% Ctrl” value [26] was 100%. The “% Ctrl” value ([27]; JAK1(JH2domain-pseudokinase), at 1 μM) was 0.85%, the Kd ([27]; read-out: JAK1(JH2 domain-pseudokinase) Kd) was 0.05 µM and the “% Ctrl” value [28] was 89%. For the same compound, the “% Ctrl” value [29] was 95%, the “% Ctrl” value [30] was 100% and the “% Ctrl” value [31] was 68%. For the same compound, the “% Ctrl” value ([32]; TYK2(JH2domain-pseudokinase), at 1 μM) was 0%, the Kd ([32]; read-out: TYK2(JH2 domain-pseudokinase) Kd) was 0.00018 µM and the “% Ctrl” value [33] was 84%. The “% Ctrl” value [34] was 98%, the “% Ctrl” value [35] was 86% and the “% Ctrl” value [36] was 100%. The “% Ctrl” value [37] was 98%, the “% Ctrl” value [38] was 86% and the “% Ctrl” value [39] was 90%.
